Columns and labels:
basil 'Genovese' = assay: Visual injury of basil after insecticide, fungicide, PGRs, safeners (Example 4)
Method in brief: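 Postemergence greenhouse applications of chlorpyrifos, chlorothalonil, mepiquat-chloride, paclobutrazol, napthalic anhydride or isoxadifen-ethyl. Injury rated visually for phytotoxicity, chlorosis and stunting on a 0–100% scale (0 = no response, 100 = plant death). Plants harvested ~4 weeks after treatment, pooled over replicates for nutrient content analysis.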

kale 'Red Russian' = assay: Content analysis of kale: protein, amino acids, fiber, fatty acids, minerals (Example 4, Tables 12-14); format: in vivo; conditions: 28 DA-A
Experimental: Greenhouse and laboratory studies were conducted to ascertain the tolerance and nutritional quality differences following postemergence applications of the insecticide chlorpyrifos, the fungicide chlorothalonil, the PGRs mepiquat-chloride and paclobutrazol, and the safeners napthalic anhydride and isoxadifen-ethyl on kale ‘Red Russian’ and basil ‘Genovese’. Visual injury was rated based on general phytotoxicity, chlorosis, and visual stunting and each measurement was based on a percent scale from 0 to 100 where 0 equals no visual response and 100 equals complete plant death. Kale and basil were both harvested approximately 4 weeks after treatments and plants were pooled over replicates for content analysis of crude protein, crude amino acid content, acid detergent fiber, neutral detergent fiber, total fatty acids, and/or key mineral content (including Na, Ca, P, Mg, K, Fe, Mn, Zn, and Cu). In addition, the amounts of key individual amino acids (aspartic acid, threonine, glutamic acid, proline, glycine, cysteine, valine, leucine, isoleucine, methionine, and lysine) and composite classifications of fatty acid (saturated fatty acids, monounsaturated fatty acids, polyunsaturated fatty acids) were also analyzed from these sub-samples for kale (Tables 10-14).

[1] = 7 DA-A, rates g ai/ha: chlropyrifos 1120, chlorothalonil 2630, paclobutrazol 3.23, mepiquat-chloride 12.3, Isoxadifen 8, Napthalic anhydride 264, + NIS 0.25 % v/v
[2] = 7 DA-A, rates g ai/ha: chlropyrifos 3370, chlorothalonil 7900, paclobutrazol 9.7, mepiquat-chloride 37, Isoxadifen 16, Napthalic anhydride 527, + NIS 0.25 % v/v
[3] = 14 DA-A, rates g ai/ha: chlropyrifos 1120, chlorothalonil 2630, paclobutrazol 3.23, mepiquat-chloride 12.3, Isoxadifen 8, Napthalic anhydride 264, + NIS 0.25 % v/v
[4] = 14 DA-A, rates g ai/ha: chlropyrifos 3370, chlorothalonil 7900, paclobutrazol 9.7, mepiquat-chloride 37, Isoxadifen 16, Napthalic anhydride 527, + NIS 0.25 % v/v
[5] = 28 DA-A, rates g ai/ha: chlropyrifos 1120, chlorothalonil 2630, paclobutrazol 3.23, mepiquat-chloride 12.3, Isoxadifen 8, Napthalic anhydride 264, + NIS 0.25 % v/v
[6] = 28 DA-A, rates g ai/ha: chlropyrifos 3370, chlorothalonil 7900, paclobutrazol 9.7, mepiquat-chloride 37, Isoxadifen 16, Napthalic anhydride 527, + NIS 0.25 % v/v
[7] = first-listed rate g ai/ha: chlropyrifos ###, chlorothalonil ###, paclobutrazol 3.2, mepiquat-chloride 12, + NIS 0.3 % v/v
[8] = rates g ai/ha: chlropyrifos 1120, chlorothalonil 2630, paclobutrazol 3.23, mepiquat-chloride 12.3, + NIS 0.25 % v/v
[9] = rates g ai/ha: chlropyrifos 3370, chlorothalonil 7900, paclobutrazol 9.7, mepiquat-chloride 37, + NIS 0.25 % v/v
[10] = second-listed rate g ai/ha: chlropyrifos ###, chlorothalonil ###, paclobutrazol 9.7, mepiquat-chloride 37, + NIS 0.3 % v/v

In the case of CC(C)(C)[C@@H](O)[C@@H](Cc1ccc(Cl)cc1)n1cncn1 (racemic) [paclobutrazol], the “Phytotoxicity Chlorosis” value (basil 'Genovese'; [1]) is reported as 8%, the “Phytotoxicity General” value (basil 'Genovese'; [1]) is reported as 3% and the “Phytotoxicity Stunting” value (basil 'Genovese'; [1]) is reported as 3%. The “Phytotoxicity Chlorosis” value (basil 'Genovese'; [2]) was 5%, the “Phytotoxicity General” value (basil 'Genovese'; [2]) was 3% and the “Phytotoxicity Stunting” value (basil 'Genovese'; [2]) was 2%. The “Phytotoxicity Chlorosis” value (basil 'Genovese'; [3]) was 5%, the “Phytotoxicity General” value (basil 'Genovese'; [3]) was 0% and the “Phytotoxicity Stunting” value (basil 'Genovese'; [3]) was 7%. The “Phytotoxicity Chlorosis” value (basil 'Genovese'; [4]) was 7%, the “Phytotoxicity General” value (basil 'Genovese'; [4]) was 0% and the “Phytotoxicity Stunting” value (basil 'Genovese'; [4]) was 5%. For the same molecule, the “Phytotoxicity Chlorosis” value (basil 'Genovese'; [5]) was 3%, the “Phytotoxicity General” value (basil 'Genovese'; [5]) was 5% and the “Phytotoxicity Stunting” value (basil 'Genovese'; [5]) was 8%. For the same molecule, the “Phytotoxicity Chlorosis” value (basil 'Genovese'; [6]) was 7%, the “Phytotoxicity General” value (basil 'Genovese'; [6]) was 2% and the “Phytotoxicity Stunting” value (basil 'Genovese'; [6]) was 2%. For the same molecule, the “Alanine, Percent Increase over the Untreated Check (on a % dry matter basis)” value (kale 'Red Russian'; [7]) was −9 % check, the “Aspartic acid, Percent Increase over the Untreated Check (on a % dry matter basis)” value (kale 'Red Russian'; [7]) was −9 % check and the “Cysteine, Percent Increase over the Untreated Check (on a % dry matter basis)” value (kale 'Red Russian'; [7]) was −6 % check. For the same molecule, the “Glutamic acid, Percent Increase over the Untreated Check (on a % dry matter basis)” value (kale 'Red Russian'; [7]) was −5 % check, the “Glycine, Percent Increase over the Untreated Check (on a % dry matter basis)” value (kale 'Red Russian'; [7]) was −12 % check and the “Iso-leucine, Percent Increase over the Untreated Check (on a % dry matter basis)” value (kale 'Red Russian'; [7]) was −6 % check. For the same molecule, the “Leucine, Percent Increase over the Untreated Check (on a % dry matter basis)” value (kale 'Red Russian'; [7]) was −7 % check, the “Lysine, Percent Increase over the Untreated Check (on a % dry matter basis)” value (kale 'Red Russian'; [7]) was −8 % check and the “Methionine, Percent Increase over the Untreated Check (on a % dry matter basis)” value (kale 'Red Russian'; [7]) was −13 % check. The “Proline, Percent Increase over the Untreated Check (on a % dry matter basis)” value (kale 'Red Russian'; [7]) was −4 % check, the “Threonine, Percent Increase over the Untreated Check (on a % dry matter basis)” value (kale 'Red Russian'; [7]) was −9 % check and the “Total Amino acids, Percent Increase over the Untreated Check (on a % dry matter basis)” value (kale 'Red Russian'; [7]) was −8 % check. The “Total Protein, Percent Increase over the Untreated Check (on a % dry matter basis)” value (kale 'Red Russian'; [7]) was 0 % check, the “Valine, Percent Increase over the Untreated Check (on a % dry matter basis)” value (kale 'Red Russian'; [7]) was −6 % check and the “ADF, Percent Increase Over the Untreated Check (on a % dry matter basis)” value (kale 'Red Russian'; [8]) was 11 % check. For the same molecule, the “Calcium, Percent Increase Over the Untreated Check (on a % dry matter basis)” value (kale 'Red Russian'; [8]) was 11 % check, the “Copper, Percent Increase Over the Untreated Check (on a % dry matter basis)” value (kale 'Red Russian'; [8]) was 12 % check and the “Iron, Percent Increase Over the Untreated Check (on a % dry matter basis)” value (kale 'Red Russian'; [8]) was −3 % check. The “Magnesium, Percent Increase Over the Untreated Check (on a % dry matter basis)” value (kale 'Red Russian'; [8]) was 8 % check, the “Manganese, Percent Increase Over the Untreated Check (on a % dry matter basis)” value (kale 'Red Russian'; [8]) was 10 % check and the “NDF, Percent Increase Over the Untreated Check (on a % dry matter basis)” value (kale 'Red Russian'; [8]) was −3 % check. The “Phosphorous, Percent Increase Over the Untreated Check (on a % dry matter basis)” value (kale 'Red Russian'; [8]) was 6 % check, the “Potassium, Percent Increase Over the Untreated Check (on a % dry matter basis)” value (kale 'Red Russian'; [8]) was 3 % check and the “Sodium, Percent Increase Over the Untreated Check (on a % dry matter basis)” value (kale 'Red Russian'; [8]) was −1 % check. The “Zinc, Percent Increase Over the Untreated Check (on a % dry matter basis)” value (kale 'Red Russian'; [8]) was 11 % check, the “ADF, Percent Increase Over the Untreated Check (on a % dry matter basis)” value (kale 'Red Russian'; [9]) was −1 % check and the “Calcium, Percent Increase Over the Untreated Check (on a % dry matter basis)” value (kale 'Red Russian'; [9]) was 22 % check. The “Copper, Percent Increase Over the Untreated Check (on a % dry matter basis)” value (kale 'Red Russian'; [9]) was 28 % check, the “Iron, Percent Increase Over the Untreated Check (on a % dry matter basis)” value (kale 'Red Russian'; [9]) was −5 % check and the “Magnesium, Percent Increase Over the Untreated Check (on a % dry matter basis)” value (kale 'Red Russian'; [9]) was 11 % check. For the same molecule, the “Manganese, Percent Increase Over the Untreated Check (on a % dry matter basis)” value (kale 'Red Russian'; [9]) was 20 % check, the “NDF, Percent Increase Over the Untreated Check (on a % dry matter basis)” value (kale 'Red Russian'; [9]) was −8 % check and the “Phosphorous, Percent Increase Over the Untreated Check (on a % dry matter basis)” value (kale 'Red Russian'; [9]) was 12 % check. For the same molecule, the “Potassium, Percent Increase Over the Untreated Check (on a % dry matter basis)” value (kale 'Red Russian'; [9]) was 15 % check, the “Sodium, Percent Increase Over the Untreated Check (on a % dry matter basis)” value (kale 'Red Russian'; [9]) was 11 % check and the “Zinc, Percent Increase Over the Untreated Check (on a % dry matter basis)” value (kale 'Red Russian'; [9]) was 13 % check. The “Alanine, Percent Increase over the Untreated Check (on a % dry matter basis)” value (kale 'Red Russian'; [10]) was 4 % check, the “Aspartic acid, Percent Increase over the Untreated Check (on a % dry matter basis)” value (kale 'Red Russian'; [10]) was 12 % check and the “Cysteine, Percent Increase over the Untreated Check (on a % dry matter basis)” value (kale 'Red Russian'; [10]) was 6 % check. For the same molecule, the “Glutamic acid, Percent Increase over the Untreated Check (on a % dry matter basis)” value (kale 'Red Russian'; [10]) was 16 % check.

Reference: patent US20110053773A1, “METHODS OF IMPROVING NUTRITIONAL VALUE OF PLANTS” (UNIVERSITY OF TENNESSEE RESEARCH FOUNDATION, priority 2009, published 2011)
